The values below come from patent US20060183909A1, “Compositions derived from quinoline and quinoxaline, preparation and use thereof” (priority 2001, published 2006).

For orientation: IC50 means the concentration at which inhibition is half-maximal.

The target in experiment [1] is xanthurenic acid receptor. Nature of the experiment: Competition protocol, IC50 determination against [3H]-XA binding on synaptic membranes. How it is done:
Binding is carried out in 50 mM Pipes buffer pH 7.4 at 0° C. […] If the compound reversibly binds to the binding site of [^3H]-XA, the two ligands will compete with each other and a binding displacement curve for [^3H]-XA can be plotted against the concentration of the competitor molecule. The incubation time is 25 minutes, followed by filtration.

Experiment [2] concerns xanthurenic acid receptor. Nature of the experiment: Screening: displacement of [3H]-XA binding to synaptic membranes at a fixed concentration. The note with it: for % inhibition of XA binding at 10 μM* / % inhibition of XA binding at 50 μM*: xanthurenic acid set arbitrarily to 100%; for % inhibition of XA binding at 50 μM*: compound at 50 μM. How it is done:
If this concentration produces the same or greater displacement than the same concentration of non-radiolabelled XA, then an IC50 is determined. […] The incubation time is 25 min. […] The filters are placed in scintillation vials to which 5 ml of Rotiszint® (Roth) are added and the vials are counted in a Beckman LS6000sc liquid scintillation counter. Specific binding is given as the difference between total binding and nonspecific binding. The percentage inhibition of binding that the synthetic compounds produce is calculated for each compound in relation to its positive control.
Background: Displacement assays read how much labelled ligand stays bound in the presence of the test substance.

Experiment [3] concerns xanthurenic acid receptor. The experiment in a line: In vitro electrophysiology experiments, block of xanthurenic acid effects. The format is cell-based.
In experiment [4] the test system is xanthurenic acid receptor. The experiment in a line: In vivo studies of stereotypic behaviors, block of xanthurenic acid effects.
The mark [5] stands for this setting: two site binding model, second (higher) IC50, 200 nM [3H]-XA, synaptic membranes, read-out: IC50 (μM), second of two values.
[6] abbreviates: compound at 10 μM, 200 nM [3H]-XA, synaptic membranes.
Where [7] appears, read: 200 nM [3H]-XA, synaptic membranes.
Where [8] appears, read: single value, inhibition of binding of 200 nM [3H]-XA, synaptic membranes, read-out: IC50.

“Also recorded” adds a separate entry of the source. Where two headings read alike, the source gives them in different places.

Regarding `O=C(O)c1ccc2cccc(O)c2n1`, the IC50 in experiment [1] (two site binding model, first (lower) IC50, 200 nM [3H]-XA, synaptic membranes, read-out: IC50 (μM), first of two values) was determined as 0.09 µM; in experiment [1] (setting [5]), 12.3 µM. Consider `O=C(O)c1cc(O)c2c(Cl)cc(Cl)c(O)c2n1` [Compound 3i, 4,8-dihydroxy-5,7-dichloro-quinoline-2-carboxylic acid], for which the “% inhibition of XA binding at 10 μM*” value in experiment [2] (setting [6]) is recorded as 163%. For the same compound, in experiment [2] (setting [7]), the “% inhibition of XA binding at 50 μM*” value amounted to 80%. Further, the 50% inhibitory concentration (IC50) in experiment [1] (setting [8]) is 4.6 µM. With `O=C(O)c1cc(O)c2cc(Br)cc(O)c2n1` [Compound 3k, 4,8-dihydroxy-6-bromo-quinoline-2-carboxylic acid], the IC50 in experiment [1] (setting [8]) was determined as 12 µM.

Regarding `Nc1cccc2c(O)cc(C(=O)O)nc12` [Compound 3u, 4-hydroxy-8-amino-quinoline-2-carboxylic acid], the “effect on xanthurenic acid binding, in words” value in experiment [2] was “quite potent inhibitor of xanthurenic acid binding; also recorded: potent inhibitors of XA binding to its site”. Moreover, the “% inhibition of XA binding at 50 μM*” value in experiment [2] (setting [7]) was determined as 106%. Besides, the IC50 in experiment [1] (setting [8]) was found to be 14.6 µM. For the same compound, the “effect on xanthurenic acid effects in vitro (electrophysiology)” value in experiment [3] is reported as “blocks the effects of xanthurenic acid without displaying an intrinsic effect”. The “effect on xanthurenic acid effects in vivo (stereotypic behaviors)” value in experiment [4] was “blocks the effects of xanthurenic acid without displaying an intrinsic effect”. As to `O=C(O)c1cc(O)c2cc(-c3ccccc3)cc(O)c2n1` [Compound 19f, 4,8-dihydroxy-6-pheenyl-quinoline-2-carboxylic acid], the “% inhibition of XA binding at 10 μM*” value in experiment [2] (setting [6]) was determined as 163.1%. Besides, in experiment [1] (setting [8]), the concentration for half-maximal inhibition (IC50) came to 5.2 µM. Take `CN1CCN(c2cccc3c(O)cc(C(=O)O)nc23)CC1.Cl` [Compound 107b, 8-(4-methyl-piperazin-1-yl)4-hydroxy-quinoline-2-carboxylic acid hydrochloride]: in experiment [2] (setting [6]), the “% inhibition of XA binding at 10 μM*” value was determined as 43%. `Cl.O=C(O)c1cc(O)c2cccc(N3CCNCC3)c2n1` [Compound 108b, 4-hydroxy-8-(piperazin-1-yl)-quinoline-2-carboxylic acid hydrochloride]: the “% inhibition of XA binding at 10 μM*” value in experiment [2] (setting [6]) was determined as 62%. Same read-out and setting: under `Cl.O=C(O)c1cc(O)c2cccc(Nc3ccccn3)c2n1` [Compound 109b, 4-hydroxy-8-(pyridin-2-yl-amino)-quinoline-2-carboxylic acid hydrochloride] stands 112%; under `CN1CCN(c2cc(C(=O)O)nc3c(O)cccc23)CC1.Cl` [Compound 110c, 8-hydroxy-4-(4-methyl-piperazin-1-yl)-quinoline-2-carboxylic acid hydrochloride], 166%; under `O=C(O)c1cc(O)c2cccc(CCc3ccccc3)c2n1` [Compound 111c, 4-hydroxy-8-phenylethyl-quinoline-2-carboxylic acid], 109%.

As for `Nc1cc(Cl)cc2c(O)cc(C(=O)O)nc12` [Compound 117d, 6-chloro-8-amino-4-hydroxy-quinoline-2-carboxylic acid], in experiment [2] (setting [6]), the “% inhibition of XA binding at 10 μM*” value was found to be 97%.

With `Nc1cc(CCc2ccccc2)cc2c(O)cc(C(=O)O)nc12` [Compound 118c, 6-phenylethyl-8-amino-4-hydroxy-quinoline-2-carboxylic acid], in experiment [2] (setting [6]), the “% inhibition of XA binding at 10 μM*” value was 66%.

`NCCCc1cc(N)c2nc(C(=O)O)cc(O)c2c1` [Compound 121c, 6-(3′-aminopropyl)-8-amino-4-hydroxy-quinoline-2-carboxylic acid]: in experiment [2] (setting [6]), the “% inhibition of XA binding at 10 μM*” value worked out at 120%. On the same count and under the same terms, under `Cl.Nc1cc(CCc2cccnc2)cc2c(O)cc(C(=O)O)nc12` [Compound 122c, 6-(pyridin-3-yl)ethyl-8-amino-4-hydroxy-quinoline-2-carboxylic acid hydrochloride] stands 29%; under `N#CCCCCCc1cc(N)c2nc(C(=O)O)cc(O)c2c1` [Compound 123c, 6-(5′-cyanopentyl)-8-amino-4-hydroxy-quinoline-2-carboxylic acid], 100%; under `CN1CCN(c2cc(N)c3nc(C(=O)O)cc(O)c3c2)CC1.Cl` [Compound 124b, 6-N-(N-methylpiperazinyl)-8-amino-4-hydroxy-quinoline-2-carboxylic acid hydrochloride], 109%. As for `O=C(O)c1cc(=O)c2ccccc2[nH]1` [Kynurenic acid, reference compound], in experiment [2], the “effect on xanthurenic acid binding, in words” value is reported as “increase the binding of xanthurenic acid”. Also, in experiment [2] (setting [6]), the “real increase in total binding (potentiation)” value is on record as “(+70% real increase” and the “% inhibition of XA binding at 10 μM*” value was “Potentiation”.

Take `O=C(O)c1cc(O)c2cccc(O)c2n1` [Xanthurenic acid, reference compound]: the “% inhibition of XA binding at 10 μM*” value in experiment [2] (setting [6]) is on record as 100%. Moreover, in experiment [2] (setting [7]), the “% inhibition of XA binding at 50 μM*” value is 100%. The concentration for half-maximal inhibition (IC50) in experiment [1] (competition between [3H]-XA and non-radiolabelled XA, read-out: IC50, first site of two site binding model) came out at 0.3 µM; in experiment [1] (setting [5]) it was 57 µM.
